{"source": "ChEMBL document CHEMBL1131913", "about": "(Bioorg Med Chem Lett, 1999)", "key": {"[1]": {"molecular_target": "T1, Prostaglandin G/H synthase 2 (Homo sapiens, UniProt P35354)", "T1 sequence (P35354 whole entry)": "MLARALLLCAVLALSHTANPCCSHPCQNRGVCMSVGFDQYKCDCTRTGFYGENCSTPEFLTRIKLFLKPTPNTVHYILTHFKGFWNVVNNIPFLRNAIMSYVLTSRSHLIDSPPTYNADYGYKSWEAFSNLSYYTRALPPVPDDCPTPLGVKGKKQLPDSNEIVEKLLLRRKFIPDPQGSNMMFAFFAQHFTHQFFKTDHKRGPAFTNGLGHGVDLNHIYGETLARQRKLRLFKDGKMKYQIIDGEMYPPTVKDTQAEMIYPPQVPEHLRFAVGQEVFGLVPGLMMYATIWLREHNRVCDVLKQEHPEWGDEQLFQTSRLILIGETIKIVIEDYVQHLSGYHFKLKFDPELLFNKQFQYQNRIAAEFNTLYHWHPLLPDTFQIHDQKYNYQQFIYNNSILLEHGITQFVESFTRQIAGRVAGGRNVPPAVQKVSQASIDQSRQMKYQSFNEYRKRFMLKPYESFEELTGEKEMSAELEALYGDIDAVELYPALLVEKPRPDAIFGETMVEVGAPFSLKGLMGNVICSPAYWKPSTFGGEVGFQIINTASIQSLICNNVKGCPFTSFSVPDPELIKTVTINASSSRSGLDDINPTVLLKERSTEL", "assay": "In vitro inhibitory activity against Prostaglandin G/H synthase 2 (COX-2) in human"}, "[2]": {"molecular_target": "T2, Prostaglandin G/H synthase 1 (Ovis aries, UniProt P05979)", "T2 sequence (P05979 whole entry)": "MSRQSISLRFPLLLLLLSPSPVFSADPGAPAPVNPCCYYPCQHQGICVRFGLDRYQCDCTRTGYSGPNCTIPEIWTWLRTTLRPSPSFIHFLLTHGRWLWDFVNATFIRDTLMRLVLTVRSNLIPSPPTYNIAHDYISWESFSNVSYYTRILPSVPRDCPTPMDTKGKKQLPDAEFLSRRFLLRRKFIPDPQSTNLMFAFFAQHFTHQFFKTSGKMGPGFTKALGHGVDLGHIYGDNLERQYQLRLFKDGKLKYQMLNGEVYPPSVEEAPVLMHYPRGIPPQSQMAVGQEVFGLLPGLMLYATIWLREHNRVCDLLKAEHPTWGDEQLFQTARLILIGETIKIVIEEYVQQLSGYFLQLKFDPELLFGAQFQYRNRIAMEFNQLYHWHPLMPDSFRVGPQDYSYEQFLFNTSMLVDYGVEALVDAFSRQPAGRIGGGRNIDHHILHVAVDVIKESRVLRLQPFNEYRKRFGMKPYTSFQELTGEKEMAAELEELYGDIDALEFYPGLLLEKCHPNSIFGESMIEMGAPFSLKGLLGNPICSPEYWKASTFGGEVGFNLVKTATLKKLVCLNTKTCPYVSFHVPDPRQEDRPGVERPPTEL", "assay": "In vitro inhibitory activity against Prostaglandin G/H synthase 1 in sheep"}, "Ovis aries": {"organism": "Ovis aries", "assay": "Selectivity ratio of COX-1 to that of COX-2"}}, "data": [{"smiles": "CCSc1cccc(-c2ccc(C(C)C(=O)O)cc2)c1", "note": "(stereo not drawn)", "values": [{"measurement": "IC50", "setting": "[1]", "value": 330, "unit": "nM"}, {"measurement": "IC50", "setting": "[2]", "value": 3100, "unit": "nM"}, {"measurement": "Selectivity", "setting": "Ovis aries", "value": 9.4}]}, {"smiles": "CC(C(=O)O)c1ccc(-c2ccc3[nH]ccc3c2)cc1", "note": "(stereo not drawn)", "values": [{"measurement": "IC50", "setting": "[1]", "value": 190, "unit": "nM"}, {"measurement": "IC50", "setting": "[2]", "value": 100, "unit": "nM"}, {"measurement": "Selectivity", "setting": "Ovis aries", "value": 0.53}]}, {"smiles": "C=CCc1cccc(-c2ccc(C(C)C(=O)O)cc2)c1", "note": "(stereo not drawn)", "values": [{"measurement": "IC50", "setting": "[1]", "value": 150, "unit": "nM"}, {"measurement": "IC50", "setting": "[2]", "value": 1400, "unit": "nM"}, {"measurement": "Selectivity", "setting": "Ovis aries", "value": 9.3}]}, {"smiles": "CC(C)c1cccc(-c2ccc(C(C)C(=O)O)cc2F)c1", "note": "(stereo not drawn)", "values": [{"measurement": "IC50", "setting": "[1]", "value": "> 100000", "unit": "nM"}, {"measurement": "IC50", "setting": "[2]", "value": 15000, "unit": "nM"}, {"measurement": "Selectivity", "setting": "Ovis aries", "value": "< 0.15"}]}, {"smiles": "CCOc1cc(OCC)cc(-c2ccc(C(C)C(=O)O)cc2)c1", "note": "(stereo not drawn)", "values": [{"measurement": "IC50", "setting": "[1]", "value": 320, "unit": "nM"}, {"measurement": "IC50", "setting": "[2]", "value": 25000, "unit": "nM"}, {"measurement": "Selectivity", "setting": "Ovis aries", "value": 78}]}, {"smiles": "C=Cc1cccc(-c2ccc(C(C)C(=O)O)cc2)c1", "note": "(stereo not drawn)", "values": [{"measurement": "IC50", "setting": "[1]", "value": 730, "unit": "nM"}, {"measurement": "IC50", "setting": "[2]", "value": 1300, "unit": "nM"}, {"measurement": "Selectivity", "setting": "Ovis aries", "value": 1.8}]}, {"smiles": "COc1cc(OC)cc(-c2ccc(C(C)C(=O)O)cc2F)c1", "note": "(stereo not drawn)", "values": [{"measurement": "IC50", "setting": "[1]", "value": 70, "unit": "nM"}, {"measurement": "IC50", "setting": "[2]", "value": 63, "unit": "nM"}, {"measurement": "Selectivity", "setting": "Ovis aries", "value": 0.9}]}, {"smiles": "CCOc1cccc(-c2ccc(C(C)C(=O)O)cc2F)c1", "note": "(stereo not drawn)", "values": [{"measurement": "IC50", "setting": "[1]", "value": 14, "unit": "nM"}, {"measurement": "IC50", "setting": "[2]", "value": 14, "unit": "nM"}, {"measurement": "Selectivity", "setting": "Ovis aries", "value": 1}]}, {"smiles": "Cc1cc(C)cc(-c2ccc(C(C)C(=O)O)cc2F)c1", "note": "(stereo not drawn)", "values": [{"measurement": "IC50", "setting": "[1]", "value": 19000, "unit": "nM"}, {"measurement": "IC50", "setting": "[2]", "value": 15000, "unit": "nM"}, {"measurement": "Selectivity", "setting": "Ovis aries", "value": 0.79}]}, {"smiles": "C/C=C/c1cncc(-c2ccc(C(C)C(=O)O)cc2)c1", "note": "(stereo not drawn)", "values": [{"measurement": "IC50", "setting": "[1]", "value": 670, "unit": "nM"}, {"measurement": "IC50", "setting": "[2]", "value": 15500, "unit": "nM"}, {"measurement": "Selectivity", "setting": "Ovis aries", "value": 23}]}, {"smiles": "CC(C(=O)O)c1ccc(-c2ccccc2)cc1", "note": "(stereo not drawn)", "values": [{"measurement": "IC50", "setting": "[1]", "value": 21, "unit": "nM"}]}, {"smiles": "Cc1cc2cc(-c3ccc(C(C)C(=O)O)cc3)ccc2[nH]1", "note": "(stereo not drawn)", "values": [{"measurement": "IC50", "setting": "[1]", "value": 230, "unit": "nM"}, {"measurement": "IC50", "setting": "[2]", "value": 10500, "unit": "nM"}, {"measurement": "Selectivity", "setting": "Ovis aries", "value": 45}]}, {"smiles": "C=Cc1cncc(-c2ccc(C(C)C(=O)O)cc2)c1", "note": "(stereo not drawn)", "values": [{"measurement": "IC50", "setting": "[1]", "value": 190, "unit": "nM"}, {"measurement": "IC50", "setting": "[2]", "value": 190, "unit": "nM"}, {"measurement": "Selectivity", "setting": "Ovis aries", "value": 1}]}, {"smiles": "CCOc1cc(OCC)cc(-c2ccc(C(C)C(=O)O)cc2F)c1", "note": "(stereo not drawn)", "values": [{"measurement": "IC50", "setting": "[1]", "value": 100, "unit": "nM"}, {"measurement": "IC50", "setting": "[2]", "value": 7700, "unit": "nM"}, {"measurement": "Selectivity", "setting": "Ovis aries", "value": 77}]}, {"smiles": "CCc1cccc(-c2ccc(C(C)C(=O)O)cc2)c1", "note": "(stereo not drawn)", "values": [{"measurement": "IC50", "setting": "[1]", "value": 2400, "unit": "nM"}, {"measurement": "IC50", "setting": "[2]", "value": 5800, "unit": "nM"}, {"measurement": "Selectivity", "setting": "Ovis aries", "value": 2.4}]}]}
